Results published in patent US20260027116A1, “Methods of Treating Chronic Graft-Versus-Host Disease Following Allogeneic Hematopoietic Stem Cell Transplantation” (Kadmon Corporation, LLC, priority 2022, published 2026).

Test system: patients with cGVHD
Test: Example 2: safety, adverse events, relative dose intensity
Format: in vivo
Details: for Cough / Diarrhea / Dyspnea / Fatigue / Headache / Muscle spasms / Nausea / Peripheral edema / Upper respiratory tract infection / Vomiting: All grades; for Hyperglycemia / Hypertension / Pneumonia: Grade ≥ 3; for ALT increased / AST increased / Bilirubin conjugated increased / Blood alkaline phosphatase increased / GGT increased / Hypoalbuminemia / LFT increased / Transaminases increased: Liver-related AE
Method: All responses were assessed by the study site investigators.

## CC(C)NC(=O)COc1cccc(-c2nc(Nc3ccc4[nH]ncc4c3)c3ccccc3n2)c1 [Belumosudil, 2-{3-[4-(1H-indazol-5-ylamino)-2-quinazolinyl]phenoxy}-N-(propan-2-yl) acetamide]
200 mg daily (n = 66)
  Any AE: 65 (99) n (%)
  Deaths: 8 (12) n (%)
  Drug-related AEs: 49 (74) n (%)
  Drug-related SAEs: 5 (8) n (%)
  Grade ≥ 3 AEs: 37 (56) n (%)
  Liver-related AEs: 12 (18) n (%)
  SAEs: 27 (41) n (%)
  Cough: 20 (30) n (%)
  Diarrhea: 23 (35) n (%)
  Dyspnea: 21 (32) n (%)
  Fatigue: 30 (46) n (%)
  Headache: 13 (20) n (%)
  Muscle spasms: 13 (20) n (%)
  Nausea: 23 (35) n (%)
  Peripheral edema: 17 (26) n (%)
  Upper respiratory tract infection: 17 (26) n (%)
  Vomiting: 18 (27) n (%)
  Hyperglycemia: 3 (5) n (%)
  Hypertension: 4 (6) n (%)
  Pneumonia: 6 (9) n (%)
  ALT increased: 4 (6) n (%)
  AST increased: 5 (8) n (%)
  Bilirubin conjugated increased: 1 (2) n (%)
  Blood alkaline phosphatase increased: 4 (6) n (%)
  GGT increased: 6 (9) n (%)
  Hypoalbuminemia: 2 (3) n (%)
  LFT increased: 1 (2) n (%)
  Transaminases increased: 1 (2) n (%)
200 mg twice daily (n = 66)
  Any AE: 66 (100) n (%)
  Deaths: 6 (9) n (%)
  Drug-related AEs: 40 (61) n (%)
  Drug-related SAEs: 2 (3) n (%)
  Grade ≥ 3 AEs: 34 (52) n (%)
  Liver-related AEs: 19 (29) n (%)
  SAEs: 23 (35) n (%)
  Cough: 17 (26) n (%)
  Diarrhea: 21 (32) n (%)
  Dyspnea: 12 (18) n (%)
  Fatigue: 20 (30) n (%)
  Headache: 18 (27) n (%)
  Muscle spasms: 13 (20) n (%)
  Nausea: 18 (27) n (%)
  Peripheral edema: 13 (20) n (%)
  Upper respiratory tract infection: 18 (27) n (%)
  Vomiting: 10 (15) n (%)
  Hyperglycemia: 3 (5) n (%)
  Hypertension: 4 (6) n (%)
  Pneumonia: 4 (6) n (%)
  ALT increased: 7 (11) n (%)
  AST increased: 8 (12) n (%)
  Bilirubin conjugated increased: 0 n (%)
  Blood alkaline phosphatase increased: 6 (9) n (%)
  GGT increased: 10 (15) n (%)
  Hypoalbuminemia: 2 (3) n (%)
  LFT increased: 0 n (%)
  Transaminases increased: 1 (2) n (%)
Total (N = 132)
  Cough: 37 (28) n (%)
  Diarrhea: 44 (33) n (%)
  Dyspnea: 33 (25) n (%)
  Fatigue: 50 (38) n (%)
  Headache: 31 (24) n (%)
  Muscle spasms: 26 (20) n (%)
  Nausea: 41 (31) n (%)
  Peripheral edema: 30 (23) n (%)
  Upper respiratory tract infection: 35 (27) n (%)
  Vomiting: 28 (21) n (%)
  Hyperglycemia: 6 (5) n (%)
  Hypertension: 8 (6) n (%)
  Pneumonia: 10 (8) n (%)
  ALT increased: 11 (8) n (%)
  AST increased: 13 (10) n (%)
  Bilirubin conjugated increased: 1 (1) n (%)
  Blood alkaline phosphatase increased: 10 (8) n (%)
  GGT increased: 16 (12) n (%)
  Hypoalbuminemia: 4 (3) n (%)
  LFT increased: 1 (1) n (%)
  Transaminases increased: 2 (2) n (%)
  Any AE: 131 (99) n (%)
  Drug-related AEs: 89 (67) n (%)
  Drug-related SAEs: 7 (5) n (%)
  Grade ≥ 3 AEs: 71 (54) n (%)
  Liver-related AEs: 31 (24) n (%)
  SAEs: 50 (38) n (%)
Example 2
  SAE pneumonia: 7%
  deaths from multiorgan failure and infection possibly related to belumosudil: 2
  grade 3 or 4 hyperglycemia: 5%
  grade 3 or 4 hypertension: 6%
  grade 3 or 4 pneumonia: 8%
  grade ≥3 anemia: 3%
  grade ≥3 cytopenias: < 4%
  grade ≥3 neutropenia: 2%
  grade ≥3 thrombocytopenia: 2%
  increased GGT (AE): 12%
  median RDI: 99.7%
  subjects who died during the study: Fourteen
  subjects who discontinued because of overall AEs: 21%
  subjects who discontinued because of possible drug-related AEs: 12%
  subjects who discontinued because of progression of cGVHD: 16%
  subjects who discontinued because of progression of underlying malignant disease: 4%
  subjects who received an RDI >95%: Eighty-one
  subjects with increased liver function tests (LFTs): Twenty-four
  subjects with ≥1 SAE: Thirty eight
  tolerability: well tolerated
Example 2, unrelated to belumosudil
  cases of Epstein-Barr viremia that required treatment: 1 case
Total (N = 132), six died during LTFU (>28 days after last dose)
  Deaths: 14 (11) n (%)
